In paper PMC3961306, “Comparison of the Cancer Gene Targeting and Biochemical Selectivities of All Targeted Kinase Inhibitors Approved for Clinical Use” (PLoS ONE, 2014):

What was measured:
Assay in all cases: Kinase profiling in a biochemical assay panel (mobility shift assays and ELISA), %-inhibition at 1 μM; selectivity entropy
[1] = molecular target: T1, panel of more than 300 wild-type and mutant kinases (313 kinase panel) (Homo sapiens, UniProt Q8IWQ3)
T1 sequence (Q8IWQ3 1-736): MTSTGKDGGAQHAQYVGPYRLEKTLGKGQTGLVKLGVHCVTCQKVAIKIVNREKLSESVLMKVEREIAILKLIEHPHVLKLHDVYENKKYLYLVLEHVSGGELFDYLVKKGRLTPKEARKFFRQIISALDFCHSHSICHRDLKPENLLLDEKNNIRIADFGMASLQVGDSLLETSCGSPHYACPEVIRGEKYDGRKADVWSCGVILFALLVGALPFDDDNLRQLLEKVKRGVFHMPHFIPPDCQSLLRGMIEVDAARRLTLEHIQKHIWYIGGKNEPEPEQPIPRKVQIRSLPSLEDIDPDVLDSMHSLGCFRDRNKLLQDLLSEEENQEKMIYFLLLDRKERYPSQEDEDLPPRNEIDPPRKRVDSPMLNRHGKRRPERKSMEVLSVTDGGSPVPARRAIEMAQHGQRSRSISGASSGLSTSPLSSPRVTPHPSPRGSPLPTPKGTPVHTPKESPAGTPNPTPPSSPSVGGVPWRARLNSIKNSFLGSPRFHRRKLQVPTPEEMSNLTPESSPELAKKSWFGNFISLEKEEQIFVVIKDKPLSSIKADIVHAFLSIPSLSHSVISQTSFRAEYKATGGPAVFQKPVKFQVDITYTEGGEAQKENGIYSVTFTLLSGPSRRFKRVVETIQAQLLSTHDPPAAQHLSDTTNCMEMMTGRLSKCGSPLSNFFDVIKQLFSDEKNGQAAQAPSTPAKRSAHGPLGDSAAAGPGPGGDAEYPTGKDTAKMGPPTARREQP

[2] = molecular target: T2, panel of more than 300 wild-type and mutant kinases (313 kinase panel) (Homo sapiens, UniProt P51817)
T2 sequence (P51817 1-358): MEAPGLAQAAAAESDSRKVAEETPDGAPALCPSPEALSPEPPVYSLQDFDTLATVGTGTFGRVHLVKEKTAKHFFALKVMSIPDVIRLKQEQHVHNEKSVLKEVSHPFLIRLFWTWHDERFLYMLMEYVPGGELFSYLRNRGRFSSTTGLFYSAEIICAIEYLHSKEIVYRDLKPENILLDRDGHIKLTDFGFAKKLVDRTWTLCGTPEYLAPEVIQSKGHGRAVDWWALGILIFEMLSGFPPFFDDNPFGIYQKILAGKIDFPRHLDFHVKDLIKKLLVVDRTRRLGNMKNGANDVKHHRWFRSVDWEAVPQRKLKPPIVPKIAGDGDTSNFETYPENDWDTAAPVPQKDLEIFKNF

[3] = molecular target: panel of more than 300 wild-type and mutant kinases (313 kinase panel) (Homo sapiens, UniProt P16234, T674I)
Sequence of panel of more than 300 wild-type and mutant kinases (313 kinase panel) (Homo sapiens, UniProt P16234, T674I) (P16234 24-1089 T674I): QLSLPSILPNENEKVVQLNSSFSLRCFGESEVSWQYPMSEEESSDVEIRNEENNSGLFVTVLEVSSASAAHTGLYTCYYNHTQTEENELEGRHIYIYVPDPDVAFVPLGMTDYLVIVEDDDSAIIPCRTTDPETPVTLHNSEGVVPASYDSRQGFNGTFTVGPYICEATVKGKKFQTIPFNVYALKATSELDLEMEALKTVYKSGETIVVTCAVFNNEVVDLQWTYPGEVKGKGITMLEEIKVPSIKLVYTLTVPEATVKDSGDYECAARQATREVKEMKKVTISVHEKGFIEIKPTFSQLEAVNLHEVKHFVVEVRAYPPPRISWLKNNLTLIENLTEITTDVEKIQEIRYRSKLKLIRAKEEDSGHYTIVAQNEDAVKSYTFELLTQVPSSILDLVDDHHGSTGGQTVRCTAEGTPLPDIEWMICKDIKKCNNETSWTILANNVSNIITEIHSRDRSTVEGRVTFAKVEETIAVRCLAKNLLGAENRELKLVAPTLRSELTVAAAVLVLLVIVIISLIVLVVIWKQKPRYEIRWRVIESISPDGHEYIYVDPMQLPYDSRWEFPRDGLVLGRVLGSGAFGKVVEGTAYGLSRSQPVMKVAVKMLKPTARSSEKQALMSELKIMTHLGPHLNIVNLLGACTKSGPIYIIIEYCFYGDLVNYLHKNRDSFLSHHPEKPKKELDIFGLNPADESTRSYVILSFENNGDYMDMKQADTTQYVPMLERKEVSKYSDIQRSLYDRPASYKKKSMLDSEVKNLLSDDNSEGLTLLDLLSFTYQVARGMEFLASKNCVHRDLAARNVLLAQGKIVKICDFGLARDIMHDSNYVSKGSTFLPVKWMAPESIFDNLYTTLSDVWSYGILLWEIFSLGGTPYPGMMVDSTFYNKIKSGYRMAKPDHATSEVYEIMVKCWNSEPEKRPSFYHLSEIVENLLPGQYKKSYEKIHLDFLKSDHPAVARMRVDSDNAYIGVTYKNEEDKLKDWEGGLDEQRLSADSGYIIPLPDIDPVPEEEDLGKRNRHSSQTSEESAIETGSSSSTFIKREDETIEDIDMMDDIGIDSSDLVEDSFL

[4] = molecular target: T3, panel of more than 300 wild-type and mutant kinases (313 kinase panel) (Homo sapiens, UniProt P41743)
T3 sequence (P41743 1-596): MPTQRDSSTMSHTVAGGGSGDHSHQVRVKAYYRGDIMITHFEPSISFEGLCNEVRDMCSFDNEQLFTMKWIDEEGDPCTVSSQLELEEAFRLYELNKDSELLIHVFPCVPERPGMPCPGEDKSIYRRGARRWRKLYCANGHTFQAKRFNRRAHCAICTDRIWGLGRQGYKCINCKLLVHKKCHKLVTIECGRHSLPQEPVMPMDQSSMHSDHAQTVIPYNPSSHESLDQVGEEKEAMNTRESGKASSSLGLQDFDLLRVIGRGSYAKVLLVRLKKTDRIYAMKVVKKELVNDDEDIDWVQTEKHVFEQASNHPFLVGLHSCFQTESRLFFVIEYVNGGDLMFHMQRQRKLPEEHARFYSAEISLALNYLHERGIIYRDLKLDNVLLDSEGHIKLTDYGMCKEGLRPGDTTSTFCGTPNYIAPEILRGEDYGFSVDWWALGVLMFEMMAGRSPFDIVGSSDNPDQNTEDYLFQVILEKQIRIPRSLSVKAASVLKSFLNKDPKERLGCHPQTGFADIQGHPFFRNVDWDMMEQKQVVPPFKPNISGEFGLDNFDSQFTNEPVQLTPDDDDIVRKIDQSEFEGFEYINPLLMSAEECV

[5] = molecular target: panel of more than 300 wild-type and mutant kinases (313 kinase panel) (Homo sapiens, UniProt P51812)
[6] = molecular target: panel of more than 300 wild-type and mutant kinases (313 kinase panel) (Homo sapiens, UniProt Q9P289)
Sequence of panel of more than 300 wild-type and mutant kinases (313 kinase panel) (Homo sapiens, UniProt Q9P289) (Q9P289 whole entry, change not shown): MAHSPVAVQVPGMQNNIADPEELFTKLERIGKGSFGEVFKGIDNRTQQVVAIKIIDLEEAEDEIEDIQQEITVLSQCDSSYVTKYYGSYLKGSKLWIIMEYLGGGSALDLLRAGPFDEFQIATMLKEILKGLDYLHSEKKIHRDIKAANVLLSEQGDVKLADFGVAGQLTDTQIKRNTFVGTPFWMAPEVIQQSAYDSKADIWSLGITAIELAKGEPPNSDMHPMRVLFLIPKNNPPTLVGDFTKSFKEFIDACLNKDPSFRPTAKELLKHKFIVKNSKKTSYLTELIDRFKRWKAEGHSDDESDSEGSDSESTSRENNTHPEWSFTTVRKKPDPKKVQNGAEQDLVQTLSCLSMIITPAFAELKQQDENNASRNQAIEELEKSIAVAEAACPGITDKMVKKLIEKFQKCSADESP

[7] = molecular target: panel of more than 300 wild-type and mutant kinases (313 kinase panel) (Homo sapiens, UniProt P45983)
Sequence of panel of more than 300 wild-type and mutant kinases (313 kinase panel) (Homo sapiens, UniProt P45983) (P45983 whole entry, change not shown): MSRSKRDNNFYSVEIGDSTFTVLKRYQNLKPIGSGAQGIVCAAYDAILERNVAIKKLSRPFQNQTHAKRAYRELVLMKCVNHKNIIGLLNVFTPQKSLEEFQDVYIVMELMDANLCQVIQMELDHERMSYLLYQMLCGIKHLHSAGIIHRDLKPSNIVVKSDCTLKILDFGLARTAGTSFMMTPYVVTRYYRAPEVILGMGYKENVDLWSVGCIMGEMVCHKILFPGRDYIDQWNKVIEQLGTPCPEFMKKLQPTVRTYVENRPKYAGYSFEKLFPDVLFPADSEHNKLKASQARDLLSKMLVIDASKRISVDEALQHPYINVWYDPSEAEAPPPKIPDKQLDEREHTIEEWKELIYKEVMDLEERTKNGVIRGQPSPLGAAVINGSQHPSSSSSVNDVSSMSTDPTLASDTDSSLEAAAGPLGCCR

[8] = molecular target: panel of more than 300 wild-type and mutant kinases (313 kinase panel) (Homo sapiens, UniProt Q96SB4)
Sequence of panel of more than 300 wild-type and mutant kinases (313 kinase panel) (Homo sapiens, UniProt Q96SB4) (Q96SB4 whole entry, change not shown): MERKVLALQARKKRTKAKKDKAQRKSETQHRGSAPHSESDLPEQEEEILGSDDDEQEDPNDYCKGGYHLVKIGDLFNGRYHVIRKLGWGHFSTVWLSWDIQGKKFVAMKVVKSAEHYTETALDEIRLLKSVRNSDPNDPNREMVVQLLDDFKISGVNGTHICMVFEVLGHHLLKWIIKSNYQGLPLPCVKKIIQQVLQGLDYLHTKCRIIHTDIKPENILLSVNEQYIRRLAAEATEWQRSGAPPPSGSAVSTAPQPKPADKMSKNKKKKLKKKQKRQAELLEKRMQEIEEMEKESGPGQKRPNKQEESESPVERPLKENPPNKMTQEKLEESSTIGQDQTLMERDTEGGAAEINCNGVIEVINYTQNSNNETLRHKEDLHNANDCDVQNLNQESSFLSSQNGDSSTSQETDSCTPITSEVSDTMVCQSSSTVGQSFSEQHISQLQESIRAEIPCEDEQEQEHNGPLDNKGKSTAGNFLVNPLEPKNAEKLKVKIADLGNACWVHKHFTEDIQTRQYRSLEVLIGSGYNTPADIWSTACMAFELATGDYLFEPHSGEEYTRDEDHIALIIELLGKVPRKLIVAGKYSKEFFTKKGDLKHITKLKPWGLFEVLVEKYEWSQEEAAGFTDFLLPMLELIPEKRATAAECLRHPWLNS

Structure (SMILES)	%-inhibition, BRSK2 ([1]; kinase BRSK2, 1 μM compound) [%]	%-inhibition of PRKX ([2]; kinase PRKX, 1 μM) [%]	%-inhibition of PDGFRα(T674I) ([3]; kinase PDGFRα(T674I), 1 μM) [%]	%-inhibition of PKCι ([4]; kinase PKCι, 1 μM) [%]	%-inhibition of RSK2 ([5]; kinase RSK2, 1 μM) [%]	%-inhibition of MST4 ([6]; kinase MST4, 1 μM) [%]	%-inhibition of JNK1 ([7]; kinase JNK1, compound at 1 μM) [%]	%-inhibition of RSK2 ([5]; 1 µM) [%]	%-inhibition of SRPK1 ([8]; kinase SRPK1, 1 μM) [%]	%-inhibition, BRSK2 ([1]; 1 µM) [%]	%-inhibition of SRPK1 ([8]; 1 µM) [%]	%-inhibition of PRKX ([2]; 1 µM) [%]	%-inhibition of MST4 ([6]; 1 µM) [%]	%-inhibition of PKCι ([4]; 1 µM) [%]	%-inhibition of JNK1 ([7]; 1 µM) [%]	%-inhibition of PDGFRα(T674I) ([3]; 1 µM) [%]
Cc1ccc(C(=O)Nc2ccc(CN3CCN(C)CC3)c(C(F)(F)F)c2)cc1C#Cc1cnc2cccnn12 [ponatinib]	-11	26	99	18	30											
CC(C)(C)c1nc(-c2cccc(NS(=O)(=O)c3c(F)cccc3F)c2F)c(-c2ccnc(N)n2)s1 [dabrafenib]	30	-1.55	18	14		-7	-1.12									
COc1cc(Nc2c(C#N)cnc3cc(OCCCN4CCN(C)CC4)c(OC)cc23)c(Cl)cc1Cl [bosutinib]	-12	-4.31	57	5				41								
Cc1nc(Nc2ncc(C(=O)Nc3c(C)cccc3Cl)s2)cc(N2CCN(CCO)CC2)n1 [dasatinib]									-2.17							
CO[C@H]1C[C@@H]2CC[C@@H](C)[C@@](O)(O2)C(=O)C(=O)N2CCCC[C@H]2C(=O)O[C@H]([C@H](C)C[C@@H]2CC[C@@H](OC(=O)C(C)(CO)CO)[C@H](OC)C2)CC(=O)[C@H](C)/C=C(\C)[C@@H](O)[C@@H](OC)C(=O)[C@H](C)C[C@H](C)/C=C/C=C/C=C/1C [temsirolimus]	-9	-1.9	-2.73	13	-2.74	-3.42	-3.71		6							
C#Cc1cccc(Nc2ncnc3cc(OCCOC)c(OCCOC)cc23)c1 [erlotinib]								6.4		3.75	-1.67	2	7	9	1.68	
CCCS(=O)(=O)Nc1ccc(F)c(C(=O)c2c[nH]c3ncc(-c4ccc(Cl)cc4)cc23)c1F [vemurafenib]	-6	-3.45	1.49	-16	-2.31		1.47		2				-4.62			
N#CC[C@H](C1CCCC1)n1cc(-c2ncnc3[nH]ccc23)cn1 [ruxolitinib]	-12	16	17	1.52	9	-3	-3		2.4							
CC(=O)Nc1cccc(-n2c(=O)n(C3CC3)c(=O)c3c(Nc4ccc(I)cc4F)n(C)c(=O)c(C)c32)c1 [trametinib]	5.38	-1.19	-0.248	9	-1.76	-2.23	-4.68		-0.0691							
COc1cc2c(Nc3ccc(Br)cc3F)ncnc2cc1OCC1CCN(C)CC1 [vandetanib]	-10	-5.69	91	6	5.7	-2.22	-0.604		3							
CS(=O)(=O)CCNCc1ccc(-c2ccc3ncnc(Nc4ccc(OCc5cccc(F)c5)c(Cl)c4)c3c2)o1 [lapatinib]	3.58	0.493		-0.659	-1		-6		0.333							18
CO[C@H]1C[C@@H]2CC[C@@H](C)[C@@](O)(O2)C(=O)C(=O)N2CCCC[C@H]2C(=O)O[C@H]([C@H](C)C[C@@H]2CC[C@@H](OCCO)[C@H](OC)C2)CC(=O)[C@H](C)/C=C(\C)[C@@H](O)[C@@H](OC)C(=O)[C@H](C)C[C@H](C)/C=C/C=C/C=C/1C [everolimus]	-0.919	-4.49	0.248	3.78	-1.35	-5.58	-5		1.69							
CCN(CC)CCNC(=O)c1c(C)[nH]c(/C=C2\C(=O)Nc3ccc(F)cc32)c1C [sunitinib]						34			5							
CNC(=O)c1cc(Oc2ccc(NC(=O)Nc3ccc(Cl)c(C(F)(F)F)c3)c(F)c2)ccn1 [regorafenib]	-15	-5.52	92	-8	6.66	3.66	-1.47		27							
O=S(=O)(c1cccc2cnccc12)N1CCCNCC1 [fasudil]	6	86	21	14		0.181	-5.43		-5.38							
C[C@@H](Oc1cc(-c2cnn(C3CCNCC3)c2)cnc1N)c1c(Cl)ccc(F)c1Cl [crizotinib]	8	-7	95	-5	0.217	0.54	0.431		4.55							
Cc1ccc(Nc2nccc(N(C)c3ccc4c(C)n(C)nc4c3)n2)cc1S(N)(=O)=O [pazopanib]	-2.18	-1.14		0.255	9	-3.23			8							
